Key:
[1] = tested on: MDA-MB-231; test: MTS assay cell viability screening in MDA-MB-231; format: cell-based, human; settings: 0, 1, and 5 µM, 72 hours
Method: (§1) MDA-MB-231 (Cell seeding numbers: 0.8(M231) x 10^4 cells/wells (confluency ≧ 25%), which is a human triple-negative breast cancer (TNBC) cell line, and JIMT-1 (Cell seeding numbers: 0.8(JIMT) x 10^4 cells/wells (confluency ≧ 25%)), which is a HER2 positive breast cancer (HER2+ BC) cell line, were used in the experiment.
(§2) The above cell lines were cultured in Dulbecco's modified Eagle's medium (DMEM) containing 10% fetal bovine serum (FBS), streptomycin-penicillin (100 U/mL), and Fungizone (0.625 µg/mL) at 5% CO2 and 37°C.
(§3) The human breast cancer cell lines MDA-MB-231 and JIMT-1 were treated with quinazoline-benzimidazole derivatives of Formulas 1-1 to 1-31 at various concentrations of 0, 1, and 5 µM, respectively, for 72 hours, and then cell viability was measured using the MTS assay technique. In the MTS assay, cells were attached to a 96-well plate for 24 hours, treated with the quinazoline-benzimidazole derivative for 72 hours, developed with MTS (3-(4,5-dimethylthiazol-2-yl)-5-(3-carboxymethoxyphenyl)-2-(4-sulfophenyl)-2H-tetrazolium) for 4 hours, and then absorbance was measured at 490 nm using a Spectramax Plus384 microplate analyzer.

[2] = tested on: SKBR3; test: MTS assay cell viability in SKBR3; format: cell-based; settings: SKBR3 (trastuzumab-sensitive), 0, 0.1, 0.5, 1, 2, and 5 µM, 72 hours
[3] = tested on: JIMT-1; test: Cell morphology by optical microscope in JIMT-1; format: cell-based, human; settings: 5 µM, 48 hours
Method: (§4) In addition, after treatment with compounds 1-15, 1-16, 1-19, and 1-22 at a concentration of 5 µM for 48 hours in SKBR3 and JIMT-1 cell lines, morphological changes of the cells were observed using an optical microscope, and the results are shown in B of FIG. 4.

[4] = tested on: SKBR3; test: Cell morphology by optical microscope in SKBR3; format: cell-based; settings: 5 µM, 48 hours
Method: as §4

[5] = tested on: JIMT-1; test: MTS assay cell viability in JIMT-1; format: cell-based, human; settings: 72 hours; for inhibition of cell viability: JIMT-1 (trastuzumab-resistant), 0, 0.1, 0.5, 1, 2, and 5 µM; for cell viability: JIMT-1, 0, 1, and 5 µM
Method: as §1, §2, §3, §4

[6] = tested on: hematological cancer cell line HL-60; test: MTS assay cell viability in HL-60; format: cell-based; settings: 0, 0.1, 0.5, 1, 5, and 10 µM, 72 hours
[7] = tested on: phospho-Histone H3; test: phospho-Histone H3 immunocytochemistry in JIMT-1; format: cell-based, human; settings: 5 µM, 24 hours
Method: In addition, after treatment with compounds 1-16 and 1-19 at a concentration of 5 µM for 24 hours in a JIMT-1 cell line, expression of phospho-Histone H3, a marker of mitosis, was confirmed by immunocytochemistry, and the results are shown in B of FIG. 6.

[8] = tested on: JIMT-1; test: Annexin V/PI staining flow cytometry in JIMT-1; format: cell-based, human; settings: 5 µM, 48 hours
Method: (§5) Subsequently, after treatment with the compounds of Formulas 1-16 and 1-19 at a concentration of 5 µM for 48 hours in SKBR3 and JIMT-1 cell lines, the degree of apoptosis was measured by flow cytometry through Annexin V/PI staining, and the results are shown in A of FIG. 5. […] After treatment in the same manner as above, expression of apoptosis-related proteins and degradation of tubulin protein were confirmed by western blot, and the results are shown in B of FIG. 5.

[9] = tested on: prostate cancer cell line Du145; test: MTS assay cell viability in Du145; format: cell-based; settings: 0, 0.1, 0.5, 1, 5, and 10 µM, 72 hours
[10] = tested on: hepatic cancer cell line HepG2; test: MTS assay cell viability in HepG2; format: cell-based; settings: 0, 0.1, 0.5, 1, 5, and 10 µM, 72 hours
[11] = tested on: tubulin protein; test: Western blot of apoptosis-related proteins and tubulin in JIMT-1; format: cell-based, human; settings: 5 µM, 48 hours
Method: as §5

[12] = tested on: HER2, HER family members (HER3 and EGFR), and AKT and MEK; test: Western blot of HER2 signaling proteins in JIMT-1; format: cell-based, human; settings: 5 µM, 24, 48, and 72 hours
Method: Then, after treatment with the compounds of Formulas 1-16 and 1-19 at a concentration of 5 µM for 24, 48, and 72 hours in a JIMT-1 cell line, protein expression and phosphorylation of HER2, HER family members (HER3 and EGFR), and AKT and MEK of downstream signaling mechanism were confirmed by western blot, and the results are shown in FIG. 7. […] Thereby, it was confirmed that the quinazoline-benzimidazole derivatives of the disclosure have a tyrosine kinase inhibitory effect on HER2 as in the above-described design objective.

[13] = tested on: lung cancer cell line H1299; test: MTS assay cell viability in H1299; format: cell-based; settings: 0, 0.1, 0.5, 1, 5, and 10 µM, 72 hours
[14] = tested on: ovarian cancer cell line SKOV3; test: MTS assay cell viability in SKOV3; format: cell-based; settings: 0, 0.1, 0.5, 1, 5, and 10 µM, 72 hours
[15] = tested on: colorectal cancer cell line HCT116; test: MTS assay cell viability in HCT116; format: cell-based; settings: 0, 0.1, 0.5, 1, 5, and 10 µM, 72 hours
[16] = tested on: SKBR3; test: Annexin V/PI staining flow cytometry in SKBR3; format: cell-based; settings: 5 µM, 48 hours
Method: as §5

[17] = tested on: tubulin protein; test: Western blot of apoptosis-related proteins and tubulin in SKBR3; format: cell-based; settings: 5 µM, 48 hours
Method: as §5

[18] = tested on: JIMT-1; test: Cell cycle analysis by propidium iodide flow cytometry in JIMT-1; format: cell-based, human; settings: 5 µM, 48 hours, PI staining
Method: In order to confirm this, the following experiments were performed. After treatment with the compounds of Formulas 1-16 and 1-19 at a concentration of 5 µM for 48 hours in a trastuzumab-resistant HER2-positive breast cancer cell JIMT-1, the cells were stained with propidium iodide (PI), and the cell cycle was analyzed according to DNA content using flow cytometry, and the results are shown in A of FIG. 6.

SMILES | cell viability [1] | inhibition of cell viability [2] | morphological changes of the cells [3] | morphological changes of the cells [4] | inhibition of cell viability [5] | cell viability [5] | cell viability [6] | expression of phospho-Histone H3, a marker of mitosis [7] | degree of apoptosis [8] | cell viability [9] | cell viability [10] | expression of apoptosis-related proteins and degradation of tubulin protein [11] | activities of HER2, p95HER2, HER3, EGFR, AKT, and MEK [12] | protein expression and phosphorylation of HER2, HER family members (HER3 and EGFR), and AKT and MEK [12] | cell viability [13] | cell viability [14] | cell viability [15] | degree of apoptosis [16] | expression of apoptosis-related proteins and degradation of tubulin protein [17] | cell cycle according to DNA content [18]
O=c1c2cc(-c3ccc4nc(-c5ccc(Cl)cn5)[nH]c4c3)ccc2ncn1CCN1CCCCC1 [Formula 1-22, 6-(2-(5-Chloropyridin-2-yl)-1H-benzo[d]imidazol-6-yl)-3-(2-(piperidin-1-yl)ethyl)quinazolin-4(3H)-one] | excellent activity | concentration-dependent inhibition of cell viability | typical apoptotic morphology | typical apoptotic morphology | concentration-dependent inhibition of cell viability | excellent activity |  |  |  |  |  |  |  |  |  |  |  |  |  | 
O=c1c2cc(-c3ccc4nc(-c5ccc(F)c(Cl)c5)[nH]c4c3)ccc2ncn1CCN1CCCCC1 [Formula 1-16] | excellent activity | concentration-dependent inhibition of cell viability | typical apoptotic morphology | typical apoptotic morphology | concentration-dependent inhibition of cell viability | excellent activity | effectively inhibited | increased abnormal expression of a phospho-Histone H3 protein | effectively induced early and late apoptosis | effectively inhibited | effectively inhibited | apoptosis effect by inhibiting tubulin polymerization | effectively inhibited | decreased in a time-dependent manner | effectively inhibited | effectively inhibited | effectively inhibited | effectively induced early and late apoptosis | apoptosis effect by inhibiting tubulin polymerization | G2/M phase cell cycle arrest
Cc1ccc(-c2nc3ccc(-c4ccc5ncn(CCN6CCCCC6)c(=O)c5c4)cc3[nH]2)cc1 [Formula 1-19] | excellent activity | concentration-dependent inhibition of cell viability | typical apoptotic morphology | typical apoptotic morphology | concentration-dependent inhibition of cell viability | excellent activity | effectively inhibited | increased abnormal expression of a phospho-Histone H3 protein | effectively induced early and late apoptosis | effectively inhibited | effectively inhibited | apoptosis effect by inhibiting tubulin polymerization | effectively inhibited | decreased in a time-dependent manner | effectively inhibited | effectively inhibited | effectively inhibited | effectively induced early and late apoptosis | apoptosis effect by inhibiting tubulin polymerization | G2/M phase cell cycle arrest
O=c1c2cc(-c3ccc4nc(-c5ccc(Cl)cc5)[nH]c4c3)ccc2ncn1CCN1CCCCC1 [Formula 1-15, 6-(2-(4-Chlorophenyl)-1H-benzo[d]imidazol-6-yl)-3-(2-(piperidin-1-yl)ethyl)quinazolin-4(3H)-one] | excellent activity | concentration-dependent inhibition of cell viability | typical apoptotic morphology | typical apoptotic morphology | concentration-dependent inhibition of cell viability | excellent activity |  |  |  |  |  |  |  |  |  |  |  |  |  | 

— patent EP4763840A1, “NOVEL QUINAZOLINE-BENZIMIDAZOLE DERIVATIVE OR PHARMACEUTICALLY ACCEPTABLE SALT THEREOF AND USE THEREOF” (Korea University Research and Business Foundation, priority 2023, dated 2025)
